Measurements from US10961279B2 (priority 2011, dated 2021).

Tested on: CTLL-2 cells
Format: cell-based

## DRGWGNGCGDFGKG [FLV FUS non-IS]
  effect of the dimeric peptides on proliferation of CTLL-2 cells: non-immune suppressive

## GLFGAIAGFIENGWEGCGGEKEKEK [wt INF]
  effect of the dimeric peptides on proliferation of CTLL-2 cells (synthesis of new DNA): inhibits synthesis of new DNA

## DRGWGNGCGLFGKG [monomeric peptide]
  inhibition of proliferation of CTLL-2 cells: no effect

## PALSTGLIHLHQNIVDVQCGGEKEKEK
  inhibition of proliferation of T-cells: inhibits proliferation of T-cells in a concentration dependent manner
